# Measurements: patent US20050163781A1, “Tissue adhesion formation control” (priority 2002, published 2005)
# Tests used:
# adhesion formation [1] = details: oxygen added to CO2 pneumoperitoneum, intubated mice
# Experimental: In adult, female, NMRI (Naval Medical Research Institute) mice adhesions were induced by laparoscopy and evaluated by laparotomy under microscopic view in order to assess similar variables than in the rabbit model. […] The endoscope with an outer sheath for insufflation (total diameter 3.2 mm) was introduced caudal to the xyphoides by open laparoscopy. Survival after different insufflation pressures and duration of pneumoperitoneum was evaluated in non-intubated and intubated mice. […] For the induction of adhesions, after the establishment of the pneumoperitoneum, the 2nd and 3rd ports (14-gauge catheters) were introduced in the left and right flanks under laparoscopic vision. Standardised, opposing, linear lesions in the anti-mesenteric border of uterine horns and in the pelvic sidewalls were performed by monopolar coagulation. After 7 or 28 days adhesions were evaluated by scoring extent, type and tenacity and by a quantitative measurement. In non-intubated mice CO2 pneumoperitoneum at 2.5 cm of water was maintained for 5, 15, 30, 60 and 120 min to evaluate the effect of duration of pneumoperitoneum. […] To confirm this effect and to evaluate the effect of desiccation due to the flow rate though the animal, pneumoperitoneum was maintained for 5 and 60 min without flow and for 60 min with 1 and 10 ml/min of flow rate. […]
# adhesion formation [2] = details: 0, 1, 2.5, 5, 10 and 20% of oxygen in CO2 pneumoperitoneum for 1 hour, laser lesions, rabbits
compound,measurement,setting,value
O=O [oxygen],oxygen proportion giving half maximal reduction of adhesions,adhesion formation [1],around 1.5 % of oxygen
same,oxygen proportion required for maximal response (reduction of adhesions),adhesion formation [1],2-3 % of oxygen
same,oxygen proportion at which maximal effect (decrease of adhesion formation) was observed,adhesion formation [2],5 % of oxygen
